This note sets out measurements from US20120245137A1 (Zalicus Pharmaceuticals Ltd., priority 2009, published 2012).

Some results are limits rather than exact numbers.

What is called IC50 is the concentration at which inhibition is half-maximal.

N-type calcium channel subunits (α1B, α2δ, and β3a), sequence (Q00975 whole entry): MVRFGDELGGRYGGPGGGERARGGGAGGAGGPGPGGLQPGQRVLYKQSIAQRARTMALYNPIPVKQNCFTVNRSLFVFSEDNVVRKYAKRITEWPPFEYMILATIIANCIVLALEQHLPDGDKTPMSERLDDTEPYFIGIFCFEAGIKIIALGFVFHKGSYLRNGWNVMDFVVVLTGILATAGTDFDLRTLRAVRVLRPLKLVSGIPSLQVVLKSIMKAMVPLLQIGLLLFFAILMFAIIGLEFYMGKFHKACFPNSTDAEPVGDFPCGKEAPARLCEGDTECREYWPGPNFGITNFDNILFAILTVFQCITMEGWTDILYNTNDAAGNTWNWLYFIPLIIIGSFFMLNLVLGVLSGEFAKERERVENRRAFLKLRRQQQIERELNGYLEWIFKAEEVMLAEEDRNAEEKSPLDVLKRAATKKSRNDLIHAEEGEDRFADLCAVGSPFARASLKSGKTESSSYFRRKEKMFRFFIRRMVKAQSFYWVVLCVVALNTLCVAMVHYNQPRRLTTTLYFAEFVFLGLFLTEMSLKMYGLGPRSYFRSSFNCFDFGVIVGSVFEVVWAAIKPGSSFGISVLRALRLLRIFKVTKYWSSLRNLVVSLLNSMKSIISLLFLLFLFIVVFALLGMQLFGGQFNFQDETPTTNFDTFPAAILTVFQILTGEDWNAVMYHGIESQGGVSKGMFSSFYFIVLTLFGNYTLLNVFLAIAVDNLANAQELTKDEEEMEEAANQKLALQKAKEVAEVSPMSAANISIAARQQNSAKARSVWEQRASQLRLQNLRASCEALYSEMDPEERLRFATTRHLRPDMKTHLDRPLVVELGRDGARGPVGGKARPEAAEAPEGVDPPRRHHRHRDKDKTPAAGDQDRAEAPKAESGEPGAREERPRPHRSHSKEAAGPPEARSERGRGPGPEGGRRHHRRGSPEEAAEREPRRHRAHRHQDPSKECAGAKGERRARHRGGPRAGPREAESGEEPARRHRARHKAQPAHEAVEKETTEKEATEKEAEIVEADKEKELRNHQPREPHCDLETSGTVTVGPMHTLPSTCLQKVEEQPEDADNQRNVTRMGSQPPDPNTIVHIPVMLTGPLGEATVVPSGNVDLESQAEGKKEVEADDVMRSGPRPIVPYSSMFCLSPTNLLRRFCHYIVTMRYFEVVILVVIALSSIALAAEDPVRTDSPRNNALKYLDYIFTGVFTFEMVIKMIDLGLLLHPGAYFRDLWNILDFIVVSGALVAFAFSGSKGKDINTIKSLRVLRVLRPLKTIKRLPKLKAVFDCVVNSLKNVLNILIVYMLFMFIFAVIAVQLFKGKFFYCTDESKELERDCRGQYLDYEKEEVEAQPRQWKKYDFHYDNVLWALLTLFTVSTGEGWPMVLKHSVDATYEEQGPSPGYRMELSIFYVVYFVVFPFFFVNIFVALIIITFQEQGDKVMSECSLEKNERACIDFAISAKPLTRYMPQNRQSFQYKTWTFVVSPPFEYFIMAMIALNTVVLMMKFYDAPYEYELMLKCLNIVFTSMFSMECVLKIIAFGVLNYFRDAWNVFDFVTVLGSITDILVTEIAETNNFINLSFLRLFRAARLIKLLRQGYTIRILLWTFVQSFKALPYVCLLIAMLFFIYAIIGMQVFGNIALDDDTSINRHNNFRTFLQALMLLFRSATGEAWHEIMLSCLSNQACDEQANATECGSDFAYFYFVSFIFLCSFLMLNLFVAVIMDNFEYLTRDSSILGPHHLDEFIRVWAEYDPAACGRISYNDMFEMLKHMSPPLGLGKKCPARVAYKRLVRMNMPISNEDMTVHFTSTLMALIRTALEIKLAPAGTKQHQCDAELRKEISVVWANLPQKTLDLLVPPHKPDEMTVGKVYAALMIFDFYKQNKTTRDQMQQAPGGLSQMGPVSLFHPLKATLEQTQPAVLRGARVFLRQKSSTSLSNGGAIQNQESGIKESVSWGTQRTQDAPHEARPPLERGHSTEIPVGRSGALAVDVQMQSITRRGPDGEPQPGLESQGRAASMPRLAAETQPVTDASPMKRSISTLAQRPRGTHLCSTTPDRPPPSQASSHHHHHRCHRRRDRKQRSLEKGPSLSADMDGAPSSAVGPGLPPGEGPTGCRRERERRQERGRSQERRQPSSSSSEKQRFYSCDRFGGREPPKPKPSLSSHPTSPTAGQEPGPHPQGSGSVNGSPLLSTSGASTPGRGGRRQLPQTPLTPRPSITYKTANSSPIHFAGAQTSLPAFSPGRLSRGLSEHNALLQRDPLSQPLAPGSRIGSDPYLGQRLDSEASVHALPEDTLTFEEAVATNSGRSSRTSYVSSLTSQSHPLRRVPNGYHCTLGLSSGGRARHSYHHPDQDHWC
N-type calcium channel subunits (α1B, α2δ, and β3a), sequence (P54289 25-1103 partner): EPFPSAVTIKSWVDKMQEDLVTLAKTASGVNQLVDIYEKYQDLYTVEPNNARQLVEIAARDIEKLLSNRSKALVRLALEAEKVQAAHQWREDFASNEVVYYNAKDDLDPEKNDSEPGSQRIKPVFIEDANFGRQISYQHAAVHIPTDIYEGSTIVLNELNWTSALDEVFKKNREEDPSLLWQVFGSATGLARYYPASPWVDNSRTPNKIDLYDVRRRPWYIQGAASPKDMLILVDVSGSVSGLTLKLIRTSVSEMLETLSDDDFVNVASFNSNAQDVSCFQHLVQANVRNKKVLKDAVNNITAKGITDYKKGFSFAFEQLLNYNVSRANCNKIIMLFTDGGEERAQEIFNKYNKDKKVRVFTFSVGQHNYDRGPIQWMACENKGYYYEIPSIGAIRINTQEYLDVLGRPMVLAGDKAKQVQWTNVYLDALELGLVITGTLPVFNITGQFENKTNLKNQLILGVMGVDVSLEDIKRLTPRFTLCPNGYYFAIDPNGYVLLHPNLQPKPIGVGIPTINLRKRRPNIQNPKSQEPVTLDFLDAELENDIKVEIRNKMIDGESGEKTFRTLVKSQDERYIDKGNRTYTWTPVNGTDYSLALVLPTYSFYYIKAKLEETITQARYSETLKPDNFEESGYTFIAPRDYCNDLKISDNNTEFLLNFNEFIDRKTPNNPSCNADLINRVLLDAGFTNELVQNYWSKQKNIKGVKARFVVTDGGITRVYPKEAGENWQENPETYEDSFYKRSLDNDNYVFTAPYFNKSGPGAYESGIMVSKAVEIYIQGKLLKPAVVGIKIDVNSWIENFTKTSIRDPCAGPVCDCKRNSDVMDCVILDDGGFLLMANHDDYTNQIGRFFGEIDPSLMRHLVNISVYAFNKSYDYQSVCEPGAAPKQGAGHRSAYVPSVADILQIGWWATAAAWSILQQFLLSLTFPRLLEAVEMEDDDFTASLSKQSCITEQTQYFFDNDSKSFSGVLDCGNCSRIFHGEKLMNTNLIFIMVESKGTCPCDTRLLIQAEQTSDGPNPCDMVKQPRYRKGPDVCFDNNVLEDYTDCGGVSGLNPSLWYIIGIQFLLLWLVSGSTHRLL
N-type calcium channel subunits (α1B, α2δ, and β3a), sequence (P54284 whole entry partner): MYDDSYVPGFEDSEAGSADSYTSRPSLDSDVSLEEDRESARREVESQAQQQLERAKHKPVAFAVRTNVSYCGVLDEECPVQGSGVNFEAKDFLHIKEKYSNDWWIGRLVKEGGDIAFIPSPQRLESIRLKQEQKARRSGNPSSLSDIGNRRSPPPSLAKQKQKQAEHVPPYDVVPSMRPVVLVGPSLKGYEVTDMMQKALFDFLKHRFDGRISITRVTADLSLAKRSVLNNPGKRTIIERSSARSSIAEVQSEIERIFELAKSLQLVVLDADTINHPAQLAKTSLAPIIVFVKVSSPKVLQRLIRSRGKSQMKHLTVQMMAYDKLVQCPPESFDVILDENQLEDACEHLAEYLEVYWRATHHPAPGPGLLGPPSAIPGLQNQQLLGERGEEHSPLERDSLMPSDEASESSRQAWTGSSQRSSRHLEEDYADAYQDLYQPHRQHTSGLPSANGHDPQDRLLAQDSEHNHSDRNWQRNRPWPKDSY

This test concerns the target N-type calcium channel subunits (α1B, α2δ, and β3a) (Homo sapiens, UniProt Q00975). Kind of test: Block of Cav2.2 channel, whole cell voltage clamp, manual and PatchXpress. In kind it is cell-based. The conditions noted are these: Table 5; table follows Assay Example 3 (whole cell voltage clamp / PatchXpress); assay not given. How it is done: Cells are grown either on poly-D-lysine coated coverglass (manual EP) or in TIS culture plates (PatchXpress). For the PatchExpress, cells are released from the flask using trypsin. In both cases, the […] solution is (in mM): 130 […], 10 EGTA, 10 HEPES, 2 MgCl2, 3 MgATP, pH 7.3 with CsOH.
Microelectrodes are fabricated from borosilicate glass and fire-polished. […] The reference electrode is a silver-silver chloride pellet. Voltages are not corrected for the liquid junction potential between the internal and external solutions and leak is subtracted using the P/n procedure. Solutions are applied to cells by bath perfusion via gravity. The experimental chamber volume is—0.2 mL. and the perfusion rate is 0.5-2 mL/min. Flow of suction through the chamber is maintained at all times. Measurement of current amplitudes is performed with […] software (HEKA Elektronik).
PatchXpress (Molecular Devices) is a 16-well whole-cell automated patch clamp device that operates asynchronously with fully integrated fluidics. […] Capacitance and series resistance compensation is automated. No correction for liquid junction potentials is employed. Leak is subtracted using the P/n procedure. Compounds are added to cells with a pipettor from a 96-well compound plate. Voltage protocols and the recording of membrane currents are performed using the PatchXpress software/hardware system. Current amplitudes are calculated with DataXpress software.
In both manual and automated patch clamp, cells are voltage clamped at […] or −90 m V and 50 ms pulses to +20 mV are applied every 15 sec (0.067 Hz). Compounds are added in escalating doses to measure % inhibition. Percent inhibition is calculated from the ratio of the curerent amplitude in the presence and absence of compound. When multiple doses are achieved per cell, IC50 values are calculated.
Consider `O=C(NC[C@H]1C[C@H](S(=O)(=O)c2cc(F)cc(C(F)(F)F)c2)C1)c1ccc(OC(F)(F)F)cc1` [Compound 398, N-(((1R,3R)-3-(3-fluoro-5-(trifluoromethyl)phenylsulfonyl)cyclobutyl)methyl)-4-(trifluoromethoxy)benzamide], for which the IC50 amounted to 740 nM.

Consider `O=C(N[C@H]1CC[C@H](CS(=O)(=O)c2cccc(C(F)(F)F)c2)CC1)c1ccnc(C(F)(F)F)c1` [Compound 176, 2-(trifluoromethyl)-N-((1R,4R)-4-((3-(trifluoromethyl)phenylsulfonyl)methyl)cyclohexyl)isonicotinamide], for which the IC50 is 9440 nM.

Regarding `O=S(=O)(c1cccc(C(F)(F)F)c1)[C@H]1C[C@H](c2c[nH]c(-c3ccc(OC(F)(F)F)cc3)n2)C1` [Compound 444, 2-(4-(trifluoromethoxy)phenyl)-4-((1R,3R)-3-(3-(trifluoromethyl)phenylsulfonyl)cyclobutyl)-1H-imidazole], the half-maximal inhibitory concentration (IC50) is 290 nM.

Regarding `O=C(N[C@H]1CC[C@H](CS(=O)(=O)c2cccc(C(F)(F)F)c2)CC1)c1cncc(C(F)(F)F)c1` [Compound 177, 5-(trifluoromethyl)-N-((1R,4R)-4-((3-(trifluoromethyl)phenylsulfonyl)tmehyl)cyclohexyl)nicotinamide], the half-inhibitory concentration (IC50) is 2060 nM.

Take `CC([C@H]1C[C@H](NC(=O)c2ncc(C(F)(F)F)cc2S(C)(=O)=O)C1)S(=O)(=O)c1cccc(C(F)(F)F)c1` (stereo partly drawn) [Compound 435, 3-(methylsulfonyl)-5-(trifluoromethyl)-N-((1R,3R)-3-((R)-1-(3-(trifluoromethyl)phenylsulfonyl)ethyl)cyclobutyl) picolinamide]: the IC50 was found to be 1470 nM.

`CC1(CNC(=O)c2nc3ccc(C(F)(F)F)cc3[nH]2)CCC(F)(S(=O)(=O)c2cccc(C(F)(F)F)c2)CC1` (centres unmarked) [Compound 156, N-((4-fluoro-1-methyl-4-(3-(trifluoromethyl)phenylsulfonyl)cyclohexyl)methyl)-6-(trifluoromethyl)-1H-benzo[d]imidazole-2-carboxamide]: the concentration for half-maximal inhibition (IC50) worked out at 1230 nM.

With `O=C(NC[C@H]1C[C@H](S(=O)(=O)c2cc(F)cc(C(F)(F)F)c2)C1)c1ccc(Cl)c(Cl)c1` [Compound 395, 3,4-dichloro-N-(((1R,3R)-3-(3-fluoro-5-(trifluoromethyl)phenylsulfonyl)cyclobutyl)methyl)benzamide], the half-inhibitory concentration (IC50) was determined as 750 nM.

In the case of `O=C(N[C@H]1CC[C@@H](S(=O)(=O)c2cccc(C(F)(F)F)c2)CC1)c1cnccc1C(F)(F)F` [Compound 195, 4-(trifluoromethyl)-N-((1S,4S)-4-(3-(trifluoromethyl)phenylsulfonyl)cyclohexyl)nicotinamide], the IC50 turned out to be 3150 nM.

`CS(=O)(=O)c1cc(C(F)(F)F)ccc1C(=O)NC[C@]1(O)CC[C@@H](S(=O)(=O)c2cccc(C(F)(F)F)c2)CC1` [Compound 233, N-(((1S,4S)-1-hydroxy-4-(3-(trifluoromethyl)phenylsulfonyl)cyclohexyl)methyl)-2-(methylsulfonyl)-4-(trifluoromethyl)benzamide]: the IC50 is 3570 nM.

As for `O=C(NC[C@H]1C[C@H](S(=O)(=O)c2cc(F)cc(C(F)(F)F)c2)C1)c1ccc(C(F)(F)F)cn1` [Compound 390, N-(((1R,3R)-3-(3-fluoro-5-(trifluoromethyl)phenylsulfonyl)cyclobutyl)methyl)-5-(trifluoromethyl) picolinamide], the concentration for half-maximal inhibition (IC50) was found to be 1630 nM.

`O=C1c2ccc(C(F)(F)F)cc2C(=O)N1C1CCC(F)(S(=O)(=O)c2cccc(C(F)(F)F)c2)CC1` [Compound 280, 2-((1S,4S)-4-fluoro-4-(3-(trifluoromethyl)phenylsulfonyl)cyclohexyl)-5-(trifluoromethyl)isoindoline-1,3-dione]: the IC50 was above 10000 nM.

On to `CC1(NC(=O)c2ccnn2CC(F)(F)F)CCC(S(=O)(=O)c2cccc(C(F)(F)F)c2)CC1` (centres unmarked) [Compound 314, N-(1-methyl-4-(3-(trifluoromethyl)phenylsulfonyl)cyclohexyl)-1-(2,2,2-trifluoroethyl)-1Hpyrazole-5-carboxamide], for which the IC50 stood at 4920 nM.

Take `O=C(N[C@H]1CC[C@H](S(=O)(=O)c2cccc(C(F)(F)F)c2)CC1)c1ccnc(C(F)(F)F)c1` [Compound 189, 2-(trifluoromethyl)-N-((1R,4R)-4-(3-(trifluoromethyl)phenylsulfonyl)cyclohexyl)isonicotinamide]: the IC50 is 1540 nM.

Take `O=C(N[C@H]1CC[C@@](F)(S(=O)(=O)c2cccc(C(F)(F)F)c2)CC1)C1CCCCN1` (stereo partly drawn) [Compound 283, N-((1S,4S)-4-fluoro-4-(3-(trifluorornethyl)phenylsulfonyl)cyclohexyl) piperidine-2-carboxamide]: the IC50 turned out to be 580 nM.

For the compound “4,5-dichloro-N-((1R,4R)-4-(3- (trifluoromethyl)phenylsulfonyl) cyclohexyl)isothiazole-3- carboxamide [Compound 183]”, the concentration for half-maximal inhibition (IC50) was determined as 1990 nM.

In the case of `CC(C)([C@H]1C[C@H](NC(=O)c2ccc(F)c(C(F)(F)F)c2)C1)S(=O)(=O)c1cccc(C(F)(F)F)c1` [Compound 440, 4-fluoro-3-(trifluoromethyl)-N-((1R,3R)-3-(2-(3-(trifluoromethyl)phenylsulfonyl)propan-2-yl)cyclobutyl)benzamide], the IC50 came to 80 nM.

Take `O=C(N[C@H]1CC[C@H](CS(=O)(=O)c2cccc(C(F)(F)F)c2)CC1)c1cnccc1C(F)(F)F` [Compound 169, 4-(trifluoromethyl)-N-((1R,4R)-4-((3-(trifluoromethyl)phenylsulfonyl)methyl)cyclohexyl)nicotinamide]: the IC50 worked out at 7110 nM.

Turning to `O=C(NC[C@H]1C[C@H](S(=O)(=O)c2cc(F)cc(C(F)(F)F)c2)C1)c1ccc(F)c(Cl)c1` [Compound 391, 3-chloro-4-fluoro-N-(((1R,3R)-3-(3-fluoro-5-(trifluoromethyl)phenylsulfonyl)cyclobutyl)rnethyl)benzamide], the IC50 stood at 730 nM.

For the compound `O=C(NC[C@H]1C[C@H](S(=O)(=O)c2cc(F)cc(C(F)(F)F)c2)C1)c1ccc(Cl)c(OC(F)(F)F)c1` [Compound 394, 4-chloro-N-(((1R,3R)-3-(3-fluoro-5-(trifluoromethyl)phenylsulfonyl)cyclobutyl)methyl)-3-(trifluoromethoxy)benzamide], the IC50 turned out to be 510 nM.

As for “6-(trifluoromethyl)-N-((1S,4S)-4- (3-(trifluoromethyl)phenylsulfonyl) cyclohexyl)nicotinamide [Compound 199]”, the IC50 was 1250 nM.

Take `O=C(N[C@H]1C[C@H](S(=O)(=O)c2cccc(C(F)(F)F)c2)C1)c1cc(F)cc(Cl)c1` [Compound 220, 3-chloro-5-fluoro-N-(trans-3-(3-(trifluoromethyl)phenylsulfonyl)cyclobutyl)benzamide]: the half-inhibitory concentration (IC50) worked out at 3350 nM.

As for `O=C(NC[C@H]1C[C@H](S(=O)(=O)c2cc(F)cc(C(F)(F)F)c2)C1)c1cn2cc(C(F)(F)F)ccc2n1` [Compound 393, N-(((1R,3R)-3-(3-fluoro-5-(trifluoromethyl)phenylsulfonyl)cyclobutyl)methyl)-6-(trifluoromethyl) imidazo[1,2-a]pyridine-2-carboxamide], the 50% inhibitory concentration (IC50) stood at 1070 nM.

For the compound `O=S(=O)(c1cccc(C(F)(F)F)c1)[C@H]1C[C@H](c2c[nH]c(-c3ccc(C(F)(F)F)cc3)n2)C1` [Compound 443, 2-(4-(trifluoromethyl)phenyl)-4-((1R,3R)-3-(3-(trifluoromethyl)phenylsulfonyI)cyclobutyl)-1H-imidazole], the IC50 was 440 nM.

“2-chloro-6-(trifluoromethyl)-N- ((1R,4R)-4-(3- (tritluoromethyl)phenylsulfonyl) cyclohexyl)nicotinamide [Compound 187]”: the IC50 was found to be 7000 nM.

Turning to `O=C(N[C@H]1CC[C@@H](S(=O)(=O)c2cccc(C(F)(F)F)c2)CC1)C1CCOCC1` [Compound 44, N-((1S,4S)-4-(3-(trifluoromethyl)phenylsulfonyl)cyclohexyl)tetrahydro-2H-pyran-4-carboxamide], the IC50 was 5930 nM.

Consider `O=C(CN[C@H]1CC[C@@H](S(=O)(=O)c2cccc(C(F)(F)F)c2)CC1)N1CCOCC1` [Compound 53, 1-morpholino-2-((1S,4S)-4-(3-(trifluoromethyl)phenylsulfonyl)cyclohexylamino)ethanone], for which the IC50 is 4720 nM.

In the case of `CC(C)(C)NCC(=O)N[C@H]1CC[C@H](CS(=O)(=O)c2cccc(C(F)(F)F)c2)CC1` [Compound 160, 2-(tert-butylamino)-N-((1R,4R)-4-((3-(trifluoromethyl)phenylsulfonyl)methyl)cyclohexyl)acetamide], the IC50 is 1990 nM.

For the compound `CC(C)([C@H]1C[C@H](NC(=O)c2ccc(F)c(Cl)c2)C1)S(=O)(=O)c1cccc(C(F)(F)F)c1` [Compound 441, 3-chloro-4-fluoro-N-((1R,3R)-3-(2-(3-(trifluoromethyl)phenylsulfonyl)propan-2-yl)cyclobutyl)benzamide], the IC50 was 80 nM.

Turning to `O=C(N[C@H]1C[C@H](S(=O)(=O)c2cccc(C(F)(F)F)c2)C1)c1ccc(F)c(Cl)c1` [Compound 225, 3-chloro-4-fluoro-N-(trans-3-(3-(trifluoromethyl)phenylsulfonyl)cyclobutyl)benzamide], the IC50 turned out to be 2350 nM.
